In paper PMC9516332 (Frontiers in Oncology, 2022):
Where two headings read alike, the source gives them in different places.

Columns and labels:
134 cancer cell lines = assay: Cell viability assay (ATPlite, 72 hours), IC50 on cancer cell line panel
AP-1060 (ETV6-NTRK3) = assay: Cell viability assay; conditions: read-out: IC50 in cell proliferation assay

COc1cc(N2CCC(N3CCN(C)CC3)CC2)ccc1Nc1ncc(Cl)c(Nc2ccccc2P(C)(C)=O)n1 [brigatinib]
IC50 (134 cancer cell lines; HEC-6, read-out: IC50 in cell proliferation assay): 5210 nM
IC50 (134 cancer cell lines; Homo sapiens, 769-P, read-out: IC50 in cell proliferation assay): 1910 nM
IC50 (134 cancer cell lines; Homo sapiens, 786-0, read-out: IC50 in cell proliferation assay): 2070 nM
IC50 (134 cancer cell lines; Homo sapiens, A 172, read-out: IC50 in cell proliferation assay): 888 nM
IC50 (134 cancer cell lines; Homo sapiens, A204, read-out: IC50 in cell proliferation assay): 1270 nM
IC50 (134 cancer cell lines; Homo sapiens, A498, read-out: IC50 in cell proliferation assay): 1860 nM
IC50 (134 cancer cell lines; Homo sapiens, A549, read-out: IC50 in cell proliferation assay): 893 nM
IC50 (134 cancer cell lines; Homo sapiens, A704, read-out: IC50 in cell proliferation assay): 3590 nM
IC50 (134 cancer cell lines; Homo sapiens, A-375, read-out: IC50 in cell proliferation assay): 719 nM
IC50 (134 cancer cell lines; Homo sapiens, A-427, read-out: IC50 in cell proliferation assay): 448 nM
IC50 (134 cancer cell lines; Homo sapiens, ACHN, read-out: IC50 in cell proliferation assay): 894 nM
IC50 (134 cancer cell lines; Homo sapiens, AN3-CA, read-out: IC50 in cell proliferation assay): 1860 nM
IC50 (134 cancer cell lines; Homo sapiens, ASPC1, read-out: IC50 in cell proliferation assay): 809 nM
IC50 (134 cancer cell lines; Homo sapiens, AU565, read-out: IC50 in cell proliferation assay): 2580 nM
IC50 (134 cancer cell lines; Homo sapiens, BT-20, read-out: IC50 in cell proliferation assay): 4210 nM
IC50 (134 cancer cell lines; Homo sapiens, BT-474, read-out: IC50 in cell proliferation assay): 7880 nM
IC50 (134 cancer cell lines; Homo sapiens, BT-549, read-out: IC50 in cell proliferation assay): 3010 nM
IC50 (134 cancer cell lines; Homo sapiens, BXPC-3, read-out: IC50 in cell proliferation assay): 619 nM
IC50 (134 cancer cell lines; Homo sapiens, C-33-A, read-out: IC50 in cell proliferation assay): 527 nM
IC50 (134 cancer cell lines; Homo sapiens, CAL-27, read-out: IC50 in cell proliferation assay): 673 nM
IC50 (134 cancer cell lines; Homo sapiens, CCF-STTG1, read-out: IC50 in cell proliferation assay): 3440 nM
IC50 (134 cancer cell lines; Homo sapiens, CCRF-CEM, read-out: IC50 in cell proliferation assay): 3600 nM
IC50 (134 cancer cell lines; Homo sapiens, COLO 205, read-out: IC50 in cell proliferation assay): 998 nM
IC50 (134 cancer cell lines; Homo sapiens, COLO-829, read-out: IC50 in cell proliferation assay): 2560 nM
IC50 (134 cancer cell lines; Homo sapiens, DLD-1, read-out: IC50 in cell proliferation assay): 4720 nM
IC50 (134 cancer cell lines; Homo sapiens, DU-145, read-out: IC50 in cell proliferation assay): 667 nM
IC50 (134 cancer cell lines; Homo sapiens, DU-4475, read-out: IC50 in cell proliferation assay): 1790 nM
IC50 (134 cancer cell lines; Homo sapiens, Daoy, read-out: IC50 in cell proliferation assay): 3070 nM
IC50 (134 cancer cell lines; Homo sapiens, DoTc2-4510, read-out: IC50 in cell proliferation assay): 270 nM
IC50 (134 cancer cell lines; Homo sapiens, EOL1, read-out: IC50 in cell proliferation assay): 50 nM
IC50 (134 cancer cell lines; Homo sapiens, FaDu, read-out: IC50 in cell proliferation assay): 971 nM
IC50 (134 cancer cell lines; Homo sapiens, G-361, read-out: IC50 in cell proliferation assay): 9280 nM
IC50 (134 cancer cell lines; Homo sapiens, HCC827, read-out: IC50 in cell proliferation assay): 129 nM
IC50 (134 cancer cell lines; Homo sapiens, HCC4006, read-out: IC50 in cell proliferation assay): 152 nM
IC50 (134 cancer cell lines; Homo sapiens, HCT-15, read-out: IC50 in cell proliferation assay): 3770 nM
IC50 (134 cancer cell lines; Homo sapiens, HCT-116, read-out: IC50 in cell proliferation assay): 1690 nM
IC50 (134 cancer cell lines; Homo sapiens, HEC-1, read-out: IC50 in cell proliferation assay): 1810 nM
IC50 (134 cancer cell lines; Homo sapiens, HEC-1B, read-out: IC50 in cell proliferation assay): 367 nM
IC50 (134 cancer cell lines; Homo sapiens, HL-60, read-out: IC50 in cell proliferation assay): 1110 nM
IC50 (134 cancer cell lines; Homo sapiens, HT, read-out: IC50 in cell proliferation assay): 4540 nM
IC50 (134 cancer cell lines; Homo sapiens, HT-1080, read-out: IC50 in cell proliferation assay): 1660 nM
IC50 (134 cancer cell lines; Homo sapiens, Hs746T, read-out: IC50 in cell proliferation assay): 2140 nM
IC50 (134 cancer cell lines; Homo sapiens, Hs-578T, read-out: IC50 in cell proliferation assay): 1390 nM
IC50 (134 cancer cell lines; Homo sapiens, HuTu80, read-out: IC50 in cell proliferation assay): 451 nM
IC50 (134 cancer cell lines; Homo sapiens, J82, read-out: IC50 in cell proliferation assay): 1880 nM
IC50 (134 cancer cell lines; Homo sapiens, Jurkat E6.1, read-out: IC50 in cell proliferation assay): 4380 nM
IC50 (134 cancer cell lines; Homo sapiens, K562, read-out: IC50 in cell proliferation assay): 2740 nM
IC50 (134 cancer cell lines; Homo sapiens, KATO III, read-out: IC50 in cell proliferation assay): 211 nM
IC50 (134 cancer cell lines; Homo sapiens, KG-1, read-out: IC50 in cell proliferation assay): 243 nM
IC50 (134 cancer cell lines; Homo sapiens, KLE, read-out: IC50 in cell proliferation assay): 553 nM
IC50 (134 cancer cell lines; Homo sapiens, KMS-11, read-out: IC50 in cell proliferation assay): 430 nM
IC50 (134 cancer cell lines; Homo sapiens, KU812, read-out: IC50 in cell proliferation assay): 1390 nM
IC50 (134 cancer cell lines; Homo sapiens, Kasumi 1, read-out: IC50 in cell proliferation assay): 207 nM
IC50 (134 cancer cell lines; Homo sapiens, LC-2-ad, read-out: IC50 in cell proliferation assay): 334 nM
IC50 (134 cancer cell lines; Homo sapiens, LNCaP-Clone-FGC, read-out: IC50 in cell proliferation assay): 689 nM
IC50 (134 cancer cell lines; Homo sapiens, LS174T, read-out: IC50 in cell proliferation assay): 1330 nM
IC50 (134 cancer cell lines; Homo sapiens, LS-411N, read-out: IC50 in cell proliferation assay): 1760 nM
IC50 (134 cancer cell lines; Homo sapiens, LoVo, read-out: IC50 in cell proliferation assay): 2020 nM
IC50 (134 cancer cell lines; Homo sapiens, MCF7, read-out: IC50 in cell proliferation assay): 601 nM
IC50 (134 cancer cell lines; Homo sapiens, MDA-MB-231, read-out: IC50 in cell proliferation assay): 2000 nM
IC50 (134 cancer cell lines; Homo sapiens, MDA-MB-453, read-out: IC50 in cell proliferation assay): 6650 nM
IC50 (134 cancer cell lines; Homo sapiens, MDA-MB-468, read-out: IC50 in cell proliferation assay): 2010 nM
IC50 (134 cancer cell lines; Homo sapiens, MG-63, read-out: IC50 in cell proliferation assay): 1050 nM
IC50 (134 cancer cell lines; Homo sapiens, MIA PaCa-2, read-out: IC50 in cell proliferation assay): 1190 nM
IC50 (134 cancer cell lines; Homo sapiens, MKN-45, read-out: IC50 in cell proliferation assay): 2640 nM
IC50 (134 cancer cell lines; Homo sapiens, MOLM-13, read-out: IC50 in cell proliferation assay): 58 nM
IC50 (134 cancer cell lines; Homo sapiens, MOLT-4, read-out: IC50 in cell proliferation assay): 1950 nM
IC50 (134 cancer cell lines; Homo sapiens, MV4-11, read-out: IC50 in cell proliferation assay): 33 nM
IC50 (134 cancer cell lines; Homo sapiens, MeWo, read-out: IC50 in cell proliferation assay): > 10000 nM
IC50 (134 cancer cell lines; Homo sapiens, NCCIT, read-out: IC50 in cell proliferation assay): 2680 nM
IC50 (134 cancer cell lines; Homo sapiens, NCI-H82, read-out: IC50 in cell proliferation assay): 1980 nM
IC50 (134 cancer cell lines; Homo sapiens, NCI-H460, read-out: IC50 in cell proliferation assay): 1380 nM
IC50 (134 cancer cell lines; Homo sapiens, NCI-H661, read-out: IC50 in cell proliferation assay): 402 nM
IC50 (134 cancer cell lines; Homo sapiens, NCI-H716, read-out: IC50 in cell proliferation assay): 201 nM
IC50 (134 cancer cell lines; Homo sapiens, NCI-H1650, read-out: IC50 in cell proliferation assay): 673 nM
IC50 (134 cancer cell lines; Homo sapiens, NCI-H1975, read-out: IC50 in cell proliferation assay): 449 nM
IC50 (134 cancer cell lines; Homo sapiens, NCI-H2228, read-out: IC50 in cell proliferation assay): 8 nM
IC50 (134 cancer cell lines; Homo sapiens, OVCAR-3, read-out: IC50 in cell proliferation assay): 939 nM
IC50 (134 cancer cell lines; Homo sapiens, PFSK-1, read-out: IC50 in cell proliferation assay): 592 nM
IC50 (134 cancer cell lines; Homo sapiens, RL95-2, read-out: IC50 in cell proliferation assay): 652 nM
IC50 (134 cancer cell lines; Homo sapiens, RPMI-7951, read-out: IC50 in cell proliferation assay): 1280 nM
IC50 (134 cancer cell lines; Homo sapiens, RS4-11, read-out: IC50 in cell proliferation assay): 473 nM
IC50 (134 cancer cell lines; Homo sapiens, Rec1, read-out: IC50 in cell proliferation assay): 1320 nM
IC50 (134 cancer cell lines; Homo sapiens, SHP77, read-out: IC50 in cell proliferation assay): 5190 nM
IC50 (134 cancer cell lines; Homo sapiens, SK-BR-3, read-out: IC50 in cell proliferation assay): 1360 nM
IC50 (134 cancer cell lines; Homo sapiens, SK-N-AS, read-out: IC50 in cell proliferation assay): 618 nM
IC50 (134 cancer cell lines; Homo sapiens, SK-N-FI, read-out: IC50 in cell proliferation assay): 1090 nM
IC50 (134 cancer cell lines; Homo sapiens, SK-N-MC, read-out: IC50 in cell proliferation assay): 401 nM
IC50 (134 cancer cell lines; Homo sapiens, SK-N-SH, read-out: IC50 in cell proliferation assay): 367 nM
IC50 (134 cancer cell lines; Homo sapiens, SNU-5, read-out: IC50 in cell proliferation assay): 2150 nM
IC50 (134 cancer cell lines; Homo sapiens, SNU-16, read-out: IC50 in cell proliferation assay): 376 nM
IC50 (134 cancer cell lines; Homo sapiens, SNU-C2B, read-out: IC50 in cell proliferation assay): 741 nM
IC50 (134 cancer cell lines; Homo sapiens, SU-DHL-1, read-out: IC50 in cell proliferation assay): 35 nM
IC50 (134 cancer cell lines; Homo sapiens, SU-DHL-6, read-out: IC50 in cell proliferation assay): 1340 nM
IC50 (134 cancer cell lines; Homo sapiens, SUP-T1, read-out: IC50 in cell proliferation assay): 1480 nM
IC50 (134 cancer cell lines; Homo sapiens, SW48, read-out: IC50 in cell proliferation assay): 713 nM
IC50 (134 cancer cell lines; Homo sapiens, SW480, read-out: IC50 in cell proliferation assay): 1090 nM
IC50 (134 cancer cell lines; Homo sapiens, SW626, read-out: IC50 in cell proliferation assay): 1300 nM
IC50 (134 cancer cell lines; Homo sapiens, SW780, read-out: IC50 in cell proliferation assay): 317 nM
IC50 (134 cancer cell lines; Homo sapiens, SW837, read-out: IC50 in cell proliferation assay): 663 nM
IC50 (134 cancer cell lines; Homo sapiens, SW872, read-out: IC50 in cell proliferation assay): 780 nM
IC50 (134 cancer cell lines; Homo sapiens, SW900, read-out: IC50 in cell proliferation assay): 537 nM
IC50 (134 cancer cell lines; Homo sapiens, SW948, read-out: IC50 in cell proliferation assay): 1440 nM
IC50 (134 cancer cell lines; Homo sapiens, SW982, read-out: IC50 in cell proliferation assay): 490 nM
IC50 (134 cancer cell lines; Homo sapiens, SW-620, read-out: IC50 in cell proliferation assay): 980 nM
IC50 (134 cancer cell lines; Homo sapiens, T98G, read-out: IC50 in cell proliferation assay): 1340 nM
IC50 (134 cancer cell lines; Homo sapiens, TCC-SUP, read-out: IC50 in cell proliferation assay): 1420 nM
IC50 (134 cancer cell lines; Homo sapiens, THP-1, read-out: IC50 in cell proliferation assay): 6380 nM
IC50 (134 cancer cell lines; Homo sapiens, U2OS, read-out: IC50 in cell proliferation assay): 1240 nM
IC50 (134 cancer cell lines; Homo sapiens, U-87 MG, read-out: IC50 in cell proliferation assay): 8530 nM
IC50 (134 cancer cell lines; Homo sapiens, U-118-MG, read-out: IC50 in cell proliferation assay): 1880 nM
IC50 (134 cancer cell lines; Homo sapiens, UMUC3, read-out: IC50 in cell proliferation assay): 1320 nM
IC50 (134 cancer cell lines; Hs766T, read-out: IC50 in cell proliferation assay): 2540 nM
IC50 (134 cancer cell lines; L-82, read-out: IC50 in cell proliferation assay): 6.37 nM
IC50 (134 cancer cell lines; Rh30, read-out: IC50 in cell proliferation assay): 464 nM
IC50 (AP-1060 (ETV6-NTRK3)): 2400 nM
